Test results taken from patent publication US20240247080A1, “GLP1/GIP/NPY2 RECEPTOR TRIPLE AGONISTS” (Boehringer Ingelheim International GmbH, priority 2022, published 2024).
pEC50: −log10 of the molar value. Where two headings read alike, the source gives them in different places. Starred links: 1 amine or outer side, 2 acyl side, 3 side chain; linkers in the order of their positions; H or OH if unused. Non-standard residues stand in square brackets, D forms with d. Groups on a side chain read outwards from the residue. *: point of attachment. C20 diacid = O=C(O)CCCCCCCCCCCCCCCCCCC(=O)*; C18 diacid = O=C(O)CCCCCCCCCCCCCCCCC(=O)*; γGlu = O=C(O)[C@H](CCC(=O)[*:2])N[*:1]; εLys = N[C@@H](CCCCN[*:1])C(=O)[*:2]; hArg = N=C(N)NCCCC[C@H](N)C(=O)O; AEEA = NCCOCCOCC(=O)O; Aib = CC(C)(N)C(=O)O

Legend:
Format in all cases: cell-based
Conditions in all cases: CreLuc reporter gene assay
hGLP1R = molecular target: T1, hGLP1R (Homo sapiens, UniProt P43220); test: hGLP1R CreLuc reporter gene assay in 0.5% and 100% plasma
T1 construct: expressed in transfected cells; host or cells: HEK-293 cells carrying a CRE-luciferase reporter gene
Method in brief: (§1)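 HEK-293 cells co-expressing GLP-1 or NPY2 receptor and CHO cells expressing GIP receptor, each carrying a CRE-driven luciferase reporter, were stimulated with peptides for 4 hours at 37 °C. Luminescence was read after Bright-Glo addition. EC50 came from 8-point, four-decade curves fitted by variable-slope non-linear regression.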

hGIPR = molecular target: T2, hGIPR (Homo sapiens, UniProt P48546); test: hGIPR CreLuc reporter gene assay in 0.5% and 100% plasma
T2 construct: expressed in transfected cells; host or cells: CHO cells carrying a CRE-luciferase reporter gene
T2 sequence (P48546 22-466): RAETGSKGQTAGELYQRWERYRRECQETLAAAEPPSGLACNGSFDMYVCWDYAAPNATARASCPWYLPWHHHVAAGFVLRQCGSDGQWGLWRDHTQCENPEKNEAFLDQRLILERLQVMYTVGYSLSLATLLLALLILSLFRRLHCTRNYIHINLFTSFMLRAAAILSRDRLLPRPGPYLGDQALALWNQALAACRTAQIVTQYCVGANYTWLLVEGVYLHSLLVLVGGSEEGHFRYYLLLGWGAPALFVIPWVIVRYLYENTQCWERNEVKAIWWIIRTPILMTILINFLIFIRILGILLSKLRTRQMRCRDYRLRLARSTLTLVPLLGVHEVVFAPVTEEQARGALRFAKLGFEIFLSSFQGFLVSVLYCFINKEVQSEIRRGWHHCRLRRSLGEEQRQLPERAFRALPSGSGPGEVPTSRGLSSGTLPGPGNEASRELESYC
Method in brief: as §1

hNPY2R = molecular target: T3, hNPY2R (Homo sapiens, UniProt P49146); test: hNPY2R CreLuc reporter gene assay in 0.5% and 100% plasma
T3 construct: expressed in transfected cells; host or cells: HEK-293 cells carrying a CRE-luciferase reporter gene
T3 sequence (P49146 1-381): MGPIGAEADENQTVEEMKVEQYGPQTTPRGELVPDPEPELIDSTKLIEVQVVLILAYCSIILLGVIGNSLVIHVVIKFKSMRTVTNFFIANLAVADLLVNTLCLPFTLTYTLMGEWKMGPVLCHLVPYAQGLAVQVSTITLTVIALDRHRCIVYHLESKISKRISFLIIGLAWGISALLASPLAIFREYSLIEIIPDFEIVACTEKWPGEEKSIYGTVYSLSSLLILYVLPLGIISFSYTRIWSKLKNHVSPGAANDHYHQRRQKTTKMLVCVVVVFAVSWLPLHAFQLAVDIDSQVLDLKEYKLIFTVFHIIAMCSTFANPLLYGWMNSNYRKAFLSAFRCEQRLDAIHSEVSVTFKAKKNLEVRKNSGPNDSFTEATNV
Method in brief: as §1

[1] = 0.5% human plasma, read-out: hGLP1R 0.5% hP
[2] = 0.5% human plasma, read-out: hGIPR 0.5% hP
[3] = 100% human plasma, read-out: hGIPR 100% hP
[4] = 0.5% human plasma, read-out: hNPY2R 0.5% hP
[5] = 100% human plasma, read-out: hNPY2R 100% hP
[6] = 100% human plasma, read-out: hGLP1R 100% hP

T1 sequence (P43220 24-463): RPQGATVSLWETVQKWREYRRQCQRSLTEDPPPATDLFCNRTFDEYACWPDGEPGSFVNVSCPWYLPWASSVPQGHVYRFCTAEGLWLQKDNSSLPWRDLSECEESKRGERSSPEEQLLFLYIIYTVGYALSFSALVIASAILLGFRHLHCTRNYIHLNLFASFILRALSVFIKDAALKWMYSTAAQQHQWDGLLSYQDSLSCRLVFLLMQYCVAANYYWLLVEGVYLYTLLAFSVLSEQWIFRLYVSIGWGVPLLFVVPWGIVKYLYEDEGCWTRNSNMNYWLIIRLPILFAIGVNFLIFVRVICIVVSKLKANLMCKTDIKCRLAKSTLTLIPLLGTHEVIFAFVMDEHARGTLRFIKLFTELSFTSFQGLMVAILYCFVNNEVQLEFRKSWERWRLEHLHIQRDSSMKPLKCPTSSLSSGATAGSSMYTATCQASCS

| pEC50 (hGLP1R; [1]) | pEC50 (hGIPR; [2]) | pEC50 (hGIPR; [3]) | pEC50 (hNPY2R; [4]) | pEC50 (hNPY2R; [5]) | pEC50 (hGLP1R; [6]) | Compound | pEC50 (hGLP1R; hGLP1R 0.5% hP, 0.5% human plasma) | pEC50 (hGIPR; hGIPR 0.5% hP, 0.5% human plasma) | pEC50 (hNPY2R; hNPY2R 100% hP, 100% human plasma) |
| --- | --- | --- | --- | --- | --- | --- | --- | --- | --- |
|  |  |  |  |  |  | CC[C@H](C)[C@H](NC(=O)[C@H](CC(C)C)NC(=O)[C@H](Cc1c[nH]c2ccccc12)NC(=O)[C@H](CCC(=O)O)NC(=O)[C@@H](NC(=O)[C@H](Cc1ccccc1)NC(=O)[C@H](C)NC(=O)C(C)(C)NC(=O)[C@H](CCC(N)=O)NC(=O)[C@H](C)NC(=O)[C@H](CCC(N)=O)NC(=O)[C@H](CCCCN)NC(=O)[C@H](CCC(=O)O)NC(=O)[C@H](CC(C)C)NC(=O)C(C)(C)NC(=O)[C@@H](NC(=O)[C@H](CO)NC(=O)[C@H](Cc1ccc(O)cc1)NC(=O)[C@H](CC(=O)O)NC(=O)[C@H](CO)NC(=O)[C@@H](NC(=O)[C@H](Cc1ccccc1)NC(=O)[C@@H](NC(=O)CNC(=O)[C@H](CCC(=O)O)NC(=O)C(C)(C)NC(=O)[C@@H](N)Cc1ccc(O)cc1)[C@@H](C)O)[C@@H](C)O)[C@@H](C)CC)C(C)C)C(=O)N[C@@H](CCCCNC(=O)[C@@H](N)CCCCNC(=O)CC[C@H](NC(=O)CC[C@H](NC(=O)CC[C@H](NC(=O)CC[C@H](NC(=O)CC[C@H](NC(=O)CC[C@H](NC(=O)CCCCCCCCCCCCCCCCCCC(=O)O)C(=O)O)C(=O)O)C(=O)O)C(=O)O)C(=O)O)C(=O)O)C(=O)NCC(=O)NCC(=O)N1CCC[C@H]1C(=O)N[C@@H](CO)C(=O)N[C@@H](CO)C(=O)NCC(=O)N[C@@H](C)C(=O)N[C@@H](CO)C(=O)N[C@H](C(=O)N[C@@H](CCCNC(=N)N)C(=O)N[C@@H](Cc1c[nH]cn1)C(=O)N[C@@H](Cc1ccc(O)cc1)C(=O)N[C@@H](Cc1ccc(O)cc1)C(=O)N[C@@H](CC(N)=O)C(=O)N[C@@H](Cc1c[nH]c2ccccc12)C(=O)N[C@@H](CC(C)C)C(=O)N[C@H](C(=O)N[C@@H](CCCNC(=N)N)C(=O)N[C@@H](CCC(N)=O)C(=O)N[C@@H](CCCNC(=N)N)C(=O)N[C@@H](Cc1ccc(O)cc1)C(N)=O)[C@@H](C)O)C(C)(C)C [Compound 103, Y-Aib-E-G-T-F-T-S-D-Y-S-I-Aib-L-E-K-Q-A-Q-Aib-A-F-V-E-W-L-I-K(1,3)-G-G-P-S-S-G-A-S-Tle-R-H-Y-Y-N-W-L-T-R-Q-R-Y-NH2.C20DA-gGlu-gGlu-gGlu-gGlu-gGlu-gGlu-eLys(1,2)] | 9.89 | 9.59 | 7.30 |
| 9.92 | 9.55 | 8.94 | 7.89 | 7.55 |  | H-Y[Aib]EGTFTSDYSI[Aib]LEKQAQ[Aib]AFVQWLIK([AEEA-AEEA-γGlu-γGlu-γGlu-γGlu-γGlu-C18 diacid])GGPSEPASLRHYYNWLTRQRY-NH2 [Compound 142, Y-Aib-E-G-T-F-T-S-D-Y-S-I-Aib-L-E-K-Q-A-Q-Aib-A-F-V-Q-W-L-I-K(1,3)-GGPSEPASLRHYYNWLTRQRY-NH2.C18DA-gGlu-gGlu-gGlu-gGlu-gGlu-OEG-OEG(1,2)] |  |  |  |
| 9.85 | 9.89 | 9.19 | < 7.00 | < 6.00 | 8.95 | H-Y[Aib]EGTFTSDYSI[Aib]LEKQAQ[Aib]AFVEWLIK([εLys-γGlu-γGlu-γGlu-γGlu-γGlu-γGlu-C20 diacid])GGPSSGASLRHYYNWLT[hArg]QR[dY]-NH2 [Compound 71, Y-Aib-E-G-T-F-T-S-D-Y-S-I-Aib-L-E-K-Q-A-Q-Aib-A-F-V-E-W-L-I-K(1,3)-G-G-P-S-S-G-A-S-L-R-H-Y-Y-N-W-L-T-hArg-Q-R-DTyr-NH2.C20DA-gGlu-gGlu-gGlu-gGlu-gGlu-gGlu-eLys(1,2)] |  |  |  |
| 9.96 | 9.54 | 8.73 | 7.06 |  |  | H-Y[Aib]EGTFTSDYSI[Aib]LEKQAQ[Aib]AFVEWLIK([εLys-γGlu-γGlu-γGlu-γGlu-γGlu-γGlu-C20 diacid])GGPSSGASLRHYYNL[Aib]TRQRY-NH2 [Compound 79, Y-Aib-E-G-T-F-T-S-D-Y-S-I-Aib-L-E-K-Q-A-Q-Aib-A-F-V-E-W-L-I-K(1,3)-G-G-P-S-S-G-A-S-L-R-H-Y-Y-N-L-Aib-T-R-Q-R-Y-NH2.C20DA-gGlu-gGlu-gGlu-gGlu-gGlu-gGlu-eLys(1,2)] |  |  |  |
| 9.72 | 9.46 | 9.04 | 7.86 | 7.46 |  | H-Y[Aib]EGTFTSDYSI[Aib]LEKQAQ[Aib]EFVEWLIK([εLys-γGlu-γGlu-γGlu-γGlu-γGlu-C18 diacid])GGPSSGASLRHYYNWLTRQRY-NH2 [Compound 159, Y-Aib-E-G-T-F-T-S-D-Y-S-I-Aib-L-E-K-Q-A-Q-Aib-E-F-V-E-W-L-I-K(1,3)-GGPSSGASLRHYYNWLTRQRY-NH2.C18DA-gGlu-gGlu-gGlu-gGlu-gGlu-eLys(1,2)] |  |  |  |
| 10.40 | 10.22 | 9.30 | 7.51 | 7.06 |  | H-Y[Aib]EGTFTSDYSI[Aib]LEKQAQ[Aib]AFVEWLIK([εLys-γGlu-γGlu-γGlu-γGlu-γGlu-γGlu-C20 diacid])GGPSSGASL[Aib]HYYNWLTRQRY-NH2 [Compound 129, Y-Aib-E-G-T-F-T-S-D-Y-S-I-Aib-L-E-K-Q-A-Q-Aib-A-F-V-E-W-L-I-K(1,3)-G-G-P-S-S-G-A-S-L-Aib-H-Y-Y-N-W-L-T-R-Q-R-Y-NH2.C20DA-gGlu-gGlu-gGlu-gGlu-gGlu-gGlu-eLys(1,2)] |  |  |  |
| 10.15 | 9.92 | 9.15 |  | 7.68 | 8.77 | H-Y[Aib]EGTFTSDYSI[Aib]LEKQAQ[Aib]AFVQWLIK([AEEA-AEEA-γGlu-γGlu-γGlu-γGlu-C18 diacid])GGPSEGASLRHYYNWLTRQRY-NH2 [Compound 270, Y-Aib-E-G-T-F-T-S-D-Y-S-I-Aib-L-E-K-Q-A-Q-Aib-A-F-V-Q-W-L-I-K(1,3)-GGPSEGASLRHYYNWLTRQRY-NH2.C18DA-gGlu-gGlu-gGlu-gGlu-OEG-OEG(1,2)] |  |  |  |
| 9.29 | 9.77 | 8.99 | 7.76 |  |  | H-Y[Aib]EGTFTSDYSI[Aib]LEKQAQ[Aib]EFVEWLIK([AEEA-AEEA-γGlu-C18 diacid])GGPSEGASLRHYYNWLTRQRY-NH2 [Compound 282, Y-Aib-E-G-T-F-T-S-D-Y-S-I-Aib-L-E-K-Q-A-Q-Aib-E-F-V-E-W-L-I-K(1,3)-GGPSEGASLRHYYNWLTRQRY-NH2.C18DA-gGlu-OEG-OEG(1,2)] |  |  |  |
| 10.05 | 9.92 | 9.19 | 7.73 |  | 8.50 | H-Y[Aib]EGTFTSDYSI[Aib]LEKQAQ[Aib]AFVQWLIK([AEEA-AEEA-Glu-Glu-Glu-Glu-C18 diacid])GGPESGASLRHYYNWLTRQRY-NH2 [Compound 52, Y-Aib-E-G-T-F-T-S-D-Y-S-I-Aib-L-E-K-Q-A-Q-Aib-A-F-V-Q-W-L-I-K(1,3)-GGPESGASLRHYYNWLTRQRY-NH2.C18DA-E-E-E-E-OEG-OEG(1,2)] |  |  |  |
| 10.00 | 9.59 | 9.06 | 7.67 | 7.26 |  | H-Y[Aib]EGTFTSDYSI[Aib]LEKQAQ[Aib]AFVEWLIK([AEEA-AEEA-γGlu-γGlu-γGlu-γGlu-C18 diacid])GGPESGASLRHYYNWLTRQRY-NH2 [Compound 163, Y-Aib-E-G-T-F-T-S-D-Y-S-I-Aib-L-E-K-Q-A-Q-Aib-A-F-V-E-W-L-I-K(1,3)-GGPESGASLRHYYNWLTRQRY-NH2.C18DA-gGlu-gGlu-gGlu-gGlu-OEG-OEG(1,2)] |  |  |  |
| 9.44 | 9.30 |  | 7.87 |  |  | H-Y[Aib]EGTFTSDYSI[Aib]LEKQAQ[Aib]AFVQWLIK([AEEA-AEEA-γGlu-γGlu-γGlu-γGlu-C20 diacid])GGPEEGASLRHYYNWLTRQRY-NH2 [Compound 193, Y-Aib-E-G-T-F-T-S-D-Y-S-I-Aib-L-E-K-Q-A-Q-Aib-A-F-V-Q-W-L-I-K(1,3)-GGPEEGASLRHYYNWLTRQRY-NH2.C20DA-gGlu-gGlu-gGlu-gGlu-OEG-OEG(1,2)] |  |  |  |
| 9.89 | 9.64 | 9.20 | 7.77 |  |  | H-Y[Aib]EGTFTSDYSI[Aib]LEEEAQ[Aib]AFVQWLIK([εLys-εLys-γGlu-γGlu-γGlu-γGlu-γGlu-C20 diacid])GGPSSGASLRHYYNWLTRQRY-NH2 [Compound 7, Y-Aib-E-G-T-F-T-S-D-Y-S-I-Aib-L-E-E-E-A-Q-Aib-A-F-V-Q-W-L-I-K(1,3)-GGPSSGASLRHYYNWLTRQRY-NH2.C20DA-gGlu-gGlu-gGlu-gGlu-gGlu-eLys-eLys(1,2)] |  |  |  |
